From PMC8074287, “Analgesic and Anticancer Activity of Benzoxazole Clubbed 2-Pyrrolidinones as Novel Inhibitors of Monoacylglycerol Lipase” (Molecules, 2021) come the findings set out here.

Entries after “also recorded” stand apart in the source; their conditions may differ.

Test [1] has as its system formalin-induced nociception. The test can be described thus: Formalin-induced analgesic (nociception) test. Format: in vivo, Male Wistar rats. The source says:
The formalin-induced analgesic test is an extensively acknowledged animal nociception model. In order to evaluate both central and peripheral effects of the compound (20), formalin-induced nociception model was selected for analgesic activity. The formalin induced behavioral response comprises two typical phases, stage I and II. Stage I persists up to five minutes after formalin injection and is characterized by acute pain with vigorous licking and biting of the injected site. Stage I consists the action formalin on afferent C-fiber nociceptors. While Stage II starts 10–30 min after formalin injection and persists till 60 min, characterized by periodic licking and biting of the injected site. Stage II imitates the action of central sensitization of the spinal dorsal horn neurons.
Figure 5 Formalin-induced analgesic test; a dose of the test compound 20 (5, 10, 30, and 50 mg/kg, p.o, suspended in 0.5% CMC) was administered 4 h before formalin injection (50 µL, 2.5%). Reference drug, gabapentin (100 mg/kg, i.p, dissolved in 0.9% normal saline) was injected 30 min before formalin injection. Total paw licking and biting duration, Stage I (white bar, 0–5 min) and stage II (black bar, 10–30 min) was recorded as a measure of pain behavior. Data is represented as mean ± SEM from a group of 10 animals. * p < 0.05, ** p < 0.01, p > 0.05 (NS, nonsignificant) vs. control (vehicle). GBP: Gabapentin; D5, D10, D30, andD50 are the dose concentrations of test compound 20.
Male Wistar rats (180–200 g) were obtained with the permission of IAEC (proposal number 1048) from Jamia Hamdard, New Delhi, India. The results of test compound 20 and reference drug, Gabapentin (GBP), were statistically compared with the control group.

For test [2], the target named is T1, hFAAH (Homo sapiens, UniProt O00519).
T1 sequence (O00519 1-579): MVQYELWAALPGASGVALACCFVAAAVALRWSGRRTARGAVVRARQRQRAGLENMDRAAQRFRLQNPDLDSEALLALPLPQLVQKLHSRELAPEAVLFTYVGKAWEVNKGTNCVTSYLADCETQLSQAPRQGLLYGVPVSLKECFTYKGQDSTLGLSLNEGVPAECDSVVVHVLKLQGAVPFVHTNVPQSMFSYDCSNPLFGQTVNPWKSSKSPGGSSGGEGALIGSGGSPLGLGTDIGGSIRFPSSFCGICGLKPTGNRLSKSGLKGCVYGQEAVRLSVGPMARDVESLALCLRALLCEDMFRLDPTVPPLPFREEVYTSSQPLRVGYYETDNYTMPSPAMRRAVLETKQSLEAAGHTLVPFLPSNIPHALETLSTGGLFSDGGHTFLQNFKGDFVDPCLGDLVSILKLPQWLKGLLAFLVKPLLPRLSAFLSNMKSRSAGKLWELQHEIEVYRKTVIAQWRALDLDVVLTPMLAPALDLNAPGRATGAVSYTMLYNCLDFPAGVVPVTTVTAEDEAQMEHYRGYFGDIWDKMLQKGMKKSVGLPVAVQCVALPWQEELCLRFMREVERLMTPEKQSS
The test can be described thus: Human FAAH inhibition assay (Cayman's assay kit). Particulars: IC50, mean ± SEM (n = 3).

In the case of `NS(=O)(=O)c1ccc(N2CC(c3nc4ccccc4o3)CC2=O)cc1` (stereo not shown) [Compound 20, 4-(4-(Benzo[d]oxazol-2-yl)-2-oxopyrrolidin-1-yl)benzenesulfonamide], the “pain response in acute (Stage I) and late (Stage II) phases” value in test [1] (5, 10, 30, and 50 mg/kg p.o., 4 h prior to formalin injection) was “reduced the pain response in acute and late stages in a dose-dependent manner; also recorded: reduced the pain response significantly both in acute (Stage I) and late (Stage II) phases, in a dose-dependent manner; also recorded: reduced the pain response significantly both in acute (stage I) and late (stage II) phases in a dose-dependent manner”. Moreover, the “reduction in pain response compared with positive control GBP” value in test [1] (at 30 mg/kg p.o., GBP 100 mg/kg i.p.) was “better potency than the positive control gabapentin (GBP)”. This molecule also had an IC50 in test [2] of 68 ± 2.1 µM.

In turn, `O=C1CC(c2nc3ccccc3o2)CN1c1ccc([N+](=O)[O-])cc1` (stereo not shown) [Compound 19, 4-(Benzo[d]oxazol-2-yl)-1-(4-nitrophenyl)pyrrolidin-2-one] returned a half-maximal inhibitory concentration (IC50) in test [2] of 55 ± 2.7 µM.

The IC50 is the midpoint of a concentration-inhibition curve.
